Experimental data published in US10214507B2, “Carbazole-containing amides, carbamates, and ureas as cryptochrome modulators” (Reset Therapeutics, Inc., priority 2014, dated 2019).
Like-named read-outs stand apart in the source and are kept apart here.

Legend:
[1] = test system: core clock and gluconeogenic gene mRNAs in liver of C57Bl/6J DIO mice; assay: 24 hour gene expression study, liver mRNA by RT-qPCR, C57Bl/6J DIO mice; type: in vivo, mouse; conditions: 50 mg/kg BID PO
Source text: Male C57Bl/6J DIO mice were purchased at 17 weeks of age (The Jackson Laboratory, Sacramento, Calif.) and acclimated for a 2 week period before being used for the experiment. Overall group size was 15 per treatment, divided into 5 time-points to give a final group size of 3 mice.
In total, each mouse received 5 doses of compound over the course of the experiment. Mice were weighed and randomly assigned to each treatment based on weight the evening before the commencement of the study. Beginning on Day 3 at 3:00 PM, a group of animals from the vehicle and Compound 72-treated groups were euthanized using CO2 asphyxiation, 50 mg of liver, epididymal fat, and skeletal muscle, respectively, were excised and placed in tube containing 500 μl of RNALater. This procedure took place for the remainder of the time-point groups at their given harvest times. Plasma samples were also taken for each animal and frozen, to be used for later measurement of compound levels.
E.Z.N.A.® HP Total RNA Isolation Kits (R6812-01 and the protocol described in the Manual, Revised 2010) were utilized to prepare and isolate RNA from the liver samples. To prepare the RNA samples, 10-30 mg of sample was removed from RNA-Later and placed in a 1.5 ml microfuge tube. GTC lysis buffer (700 μl) was added to the tissue, which was homogenized with a rotor-stator homogenizer (e.g. Tissue-Tearor, Model #985370 BioSpec Products with 4.5 mm probe, Cat. #985370-04), and then centrifuged at full speed (>13,000×g) for 5 minutes. The cleared supernatant was transferred by pipetting to a DNA Clearance Column Pre-inserted in a 2 mL Collection Tube. The assembled column was centrifuged at 13,000×g for 1 minute, and the flow-through was saved. An equal volume (700 μl) of 70% ethanol was added to the lysate and mixed. The sample was then applied to a HiBind RNA spin column placed into a 2 ml collection tube, which was centrifuged at 10,000×g for 60 seconds at room temperature. RNA Wash Buffer I (250 μl) was added by pipetting directly onto a new HiBind RNA column inserted in a 2 ml collection tube. The assembled column was centrifuged at 10,000×g for 60 seconds. The RNA column was placed into a new 2 ml collection tube. DNase I stock solution is pipetted (75 μl) directly onto the surface of the HiBind RNA resin in each column (Using DNAse Digestion with RNase Free DNase Set (E1091): for each HiBind RNA column, the DNase I stock solution was prepared as followed: E.Z.N.A.® DNase I Digestion Buffer 73.5μl, RNase Free DNase I (20 Kunitz/μl) 1.5 μl=Total Volume 75 μl.). The column with bound RNA was incubated at room temperature (25-30° C.) for 15 minutes. RNA Wash Buffer I (500 μl) was added to the column and placed on a bench top for 2 minutes. After centrifuging at 10,000×g for 60 seconds, discarding the flow-through, 500 μl of RNA Wash Buffer II was added and centrifuged at 10,000×g for 60 seconds. Another 500 μl of RNA Wash Buffer II was added and the column assembly was centrifuged at 10,000×g for 60 seconds. The column was centrifuged for 2 minutes at maximum speed to completely dry the HiBind matrix. The column was placed in a clean 1.5 ml microcentrifuge tube and 40-70 μl of molecular biology grade water is added. […]
RediPlate 96 RiboGreen RNA Quantification Kit (Invitrogen) RediPlate standard curve was prepared by transferring 20 μl reconstituted RNA standard to a RediPlate well reconstituted in 180 μl RediPlate TE buffer. […]

[2] = Increasing dosages of Compound 72 for 7 days in db/db mice; type: in vivo, mouse; conditions: male, mouse, oral, around 8 hours after last dose
Source text: (§1) Significance was accepted when p<0.05.

[3] = test system: db/db mouse model of type II diabetes; assay: as above; type: in vivo
Source text: as §1

[4] = Pharmacokinetic analysis in ICR mice (plasma and liver, LC/MS/MS); type: in vivo, mouse; conditions: 50 mg/kg P.O.; for Cmax / Tmax / half-life / MRT last: male, ICR, po; for Cmax: 50 mg/kg; for half-life: read-out: Elimination T1/2 (converted); for MRT last: read-out: MRT (0-last, hr)
Procedure: Male ICR mice (weighing 30-40 g, Charles River Laboratories) were used for the experiment with n=3 mice for each experimental group (27 mice total for the study). […] Blood and liver tissue were collected at the following time points after administration: 15, 30, 60, 90 minutes, 3, 6, 12 and 24 hours. A control group of animals (TO) was also sampled. Animals were euthanized with CO2 and the blood collected from the heart using cardiac puncture, transferred to an EDTA tube, and then centrifuged at 5400 rpm for 5 minutes at 4° C. The resultant plasma was frozen using dry ice and then stored at −80° C. until ready for assay. Liver tissue was removed from each animal, 0.5 g was collected in an eppendorff, frozen and submitted for pharmacokinetic measurement. […] Raw data was analyzed using WinNonLin for PK parameters (Cmax, Tmax, elimination t^1/2, MRT (mean residence time), AUC (area under the curve)−(0-last and % extrapolated).

concentration at 8 h ([2]; liver, 10 mg/kg, read-out: compound level in liver): 120 nM | concentration at 8 h ([2]; liver, 50 mg/kg, read-out: compound level in liver): 780 nM | concentration at 8 h ([2]; liver, 100 mg/kg, read-out: compound level in liver): 1810 nM | concentration at 8 h ([2]; plasma, 10 mg/kg, read-out: compound level in plasma): 90 nM | concentration at 8 h ([2]; plasma, 50 mg/kg, read-out: compound level in plasma): 570 nM | concentration at 8 h ([2]; plasma, 100 mg/kg, read-out: compound level in plasma): 1220 nM | Cmax ([4]; mouse, liver, mouse liver, read-out: Cmax): 7890 ng/mL | Cmax ([4]; mouse, liver, mouse, unbound, read-out: Cmax UB (liver)): 288 ng/mL | Cmax ([4]; mouse, plasma, mouse plasma, read-out: Cmax): 1150 ng/mL | Cmax ([4]; mouse, plasma, mouse, read-out: Cmax (plasma)): 1150 ng/mL | Cmax ([4]; mouse, plasma, mouse, unbound, read-out: Cmax UB (plasma)): 41.9 ng/mL | Tmax ([4]; mouse liver): 0.25 to 0.5 h | half-life ([4]; mouse liver): 3.4 h | MRT last ([4]; mouse liver): 4.74 h | Tmax ([4]; mouse plasma): 0.25 to 0.5 h | half-life ([4]; mouse plasma): 3.13 h | MRT last ([4]; mouse plasma): 5.3 h | % AUC extrapolated ([4]; mouse liver): 0.85% | AUC (total; ng · hr/mL) ([4]; mouse liver): 17961 ng·h/mL | % AUC extrapolated ([4]; mouse plasma): 1.74% | AUC (total; ng · hr/mL) ([4]; mouse plasma): 4236 ng·h/mL | Cmax (liver) ([4]; mouse): 7890 ng/mL | Total Liver AUC (0-last) ([4]; mouse): 17822 | Unbound Liver AUC (0-last) ([4]; mouse): 650.5 | Unbound Plasma AUC (0-last) ([4]; mouse): 151.5
SMILES: O=C1NCCN1CC(O)Cn1c2ccc(F)cc2c2cc(F)ccc21 (centres unmarked) [Compound 72, 1-(3-(3,6-difluoro-9H-carbazol-9-yl)-2-hydroxypropyl)imidazolidin-2-one]
Cry2 mRNA daytime peak in liver [1]: strongly attenuated | Bmal1 mRNA in liver ([1]; at ZT8 and 32 hours after original ZT0): substantially increased | Cry1 mRNA in liver ([1]; peak of expression in dark period): suppressed | Per2 mRNA in liver over 24 hours ([1]; vs vehicle): suppressed | circadian pattern of mRNAs for gluconeogenic genes Pck1 and G6Pc ([1]; liver, relative to vehicle): substantially altered | HOMA-IR ([3]; 10 mg/kg QD PO 7 days): 172.7+/−16.61 units | fasting blood glucose ([3]; 10 mg/kg QD PO 7 days): 503.5 ± 49.68 mg/dL | glucose AUC from OGTT ([3]; 10 mg/kg QD PO 7 days): 39771+/−4244 | HOMA-IR ([3]; 50 mg/kg QD PO 7 days): 149.2+/−16.49 units | fasting blood glucose ([3]; 50 mg/kg QD PO 7 days): 402.8 ± 25.25 mg/dL | glucose AUC from OGTT ([3]; 50 mg/kg QD PO 7 days): 35527+/−3215 | HOMA-IR ([3]; 100 mg/kg QD PO 7 days): 111.9+/−9.02 units | fasting blood glucose ([3]; 100 mg/kg QD PO 7 days): 420.7 ± 26.44 mg/dL | glucose AUC from OGTT ([3]; 100 mg/kg QD PO 7 days): 28499+/−3079 | plasma insulin at t=0 ([3]; 100 mg/kg QD PO 7 days): 4.63 ± 0.17 ng/mL | reduction of HOMA-IR compared to vehicle control ([3]; 100 mg/kg QD PO 7 days): 34%
